The results in this text go back to the supplement of paper PMC6723410.

In the assay the test system is GUMC-403. Description: viability at highest tested concentration (max response) relative to DMSO (% of DMSO control); higher = less cytotoxic. As to conditions: library / dose series: MIPE library, 11-point 1:3 dilution, 48 h. An outline of the steps:
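GUMC-403 papilloma cells, derived from a patient and expanded by conditional reprogramming, were dispensed at 700/well into 1536-well plates in 5 μL F + Y medium. A pin tool delivered 23 nL of each compound across an 11-point 1:3 dilution series for 48 h. CellTiter-Glo luminescence, read on a ViewLux, was normalised so that vehicle wells equalled 100% and empty wells 0%. Values report viability at the highest tested concentration relative to vehicle control.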

`COc1cc(N2CCC(N3CCN(C)CC3)CC2)ccc1Nc1ncc(Cl)c(Nc2ccccc2[S+](=O)([O-])C(C)C)n1` gave a viability (top concentration 46.1 µM) of 73.5.
Same read-out and setting: the same measure for `CC/C(=C(/CC)c1ccc(O)cc1)c1ccc(O)cc1`: 84.8; for `Clc1ccc(-c2nc3sccn3c2/C=N/OCc2ccc(Cl)c(Cl)c2)cc1`: 85.8; for `CNC(=O)c1cc(Oc2ccc(NC(=O)Nc3ccc(Cl)c(C(F)(F)F)c3)cc2)ccn1`: 87.
Still for that read-out and setting: the same measure for `Cc1cc(Nc2nc(N[C@@H](C)c3ccc(F)cc3)c(C#N)cc2F)n[nH]1`: 65.1; for `N\C1=N\C2=C(N=C[N]2COC(CO)CO)C(=O)N1`: 43.9; for `CC(=O)O[C@@]12CO[C@@H]1C[C@H](O)[C@]3(C)[C@@H]2[C@H](OC(=O)C4=CC=CC=C4)[C@]5(O)C[C@H](O)/C(=C(/[C@@H](O)C3=O)C5(C)C)C`: 117.
For `O=C1CCC[C@@H]2[C@H]3CCC[N+]4([O-])CCC[C@@H](CN12)[C@@H]34` (stereo not given in full), under “top concentration 46.1 µM”, the viability worked out at 106.
The same measure, in the same setting: the figure for `NNCCc1ccccc1` is 109.
On the same count and under the same terms, the figure for `CC(=O)OCC(=O)[C@@]12OC(C)(C)O[C@@H]1C[C@H]3[C@@H]4C[C@H](F)C/5=C/C(=O)/C=C\[C@]5(C)[C@@]4(F)[C@@H](O)C[C@]23C` is 116; for `N\C1=N\C2=C(N=C[N]2COCCO)C(=O)N1` it is 117; for `C/C=C/C(=O)N(CC)c1ccccc1C` it is 110.
For the molecule `CCC(C)N1\N=C/N(C1=O)C2=CC=C(C=C2)N3CCN(CC3)C4=CC=C(OC[C@H]5CO[C@@](C[N]6C=NC=N6)(O5)C7=CC=C(Cl)C=C7Cl)C=C4` (stereo not given in full), for the setting “top concentration 46.1 µM”, the viability amounted to 101.
On the same count and under the same terms, the figure for `CN1\N=N/C2=C(N=C[N]2C1=O)C(N)=O` is 121; for `CC(O)C1C2C(C)\C(=C(/N2C1=O)C(O)=O)SC3CNC(C3)C(=O)N(C)C` (stereo not given) it is 115; for `CC(=O)O/N=C1/C(=C2\C(=O)Nc3cc(Br)ccc32)Nc2ccccc21` it is 122.
Same read-out and setting: the figure for `CN(C)CCN1C(=O)c2cccc3cc(N)cc(c23)C1=O` is 62.2.
Still for that read-out and setting: the figure for `C/C(O)=C(\C#N)C(=O)Nc1cc(Br)ccc1Br` is 101.
Consider `Nc1nc(N)c2nc(CNc3ccc(C(=O)NC(CCC(=O)O)C(=O)O)cc3)cnc2n1` (stereo not given), for which the viability (top concentration 46.1 µM) was 76.6.
`Cc1cccc(-c2[nH]c(C(C)(C)C)nc2-c2ccc3nccnc3c2)n1` registered a viability (top concentration 46.1 µM) of 140.
For `Cn1c(CNc2ccc(C(=N)N)cc2)nc2cc(C(=O)N(CCC(=O)O)c3ccccn3)ccc21`, the viability (top concentration 23 µM) amounted to 134.
For the molecule `ClC1=C[NH]N=C1C\2NC(=N\C3=C2C(=O)CCC3)/NC4=NC5=CC=CC=C5O4` (stereo not given), for the setting “top concentration 46.1 µM”, the viability is 124.
Same read-out and setting: the figure for `CCOC(=O)C(C#N)C\1C2=CC(=CC=C2O\C(=C1C(=O)OCC)N)Br` (stereo not given) is 120; for `OC[C@H]1OCC(O1)[N@@]2C=CC(N)=NC2=O` (stereo not given in full) it is 114; for `O=C(/C=C/c1cccnc1)NCCCCC1CCN(C(=O)c2ccccc2)CC1` it is 128.
Same read-out and setting: the same measure for `CC(C)CNc1ccnc(NCc2csc(-c3ccccc3)n2)n1`: 100; for `CC[C@H]1OC(=O)[C@H](C)[C@@H](O[C@H]2C[C@@](C)(OC)[C@@H](O)[C@H](C)O2)[C@H](C)[C@@H](O[C@@H]2O[C@@H](C)C[C@H](N(C)C)[C@H]2O)[C@](C)(O)C[C@@H](C)C(=O)[C@H](C)[C@@H](O)[C@]1(C)O`: 116; for `Nc1nc(N)nc(-c2cc(Cl)ccc2Cl)n1.O=C(O)/C=C\C(=O)O`: 112.
The same measure, in the same setting: the same measure for `Cc1ccc(C(=O)Nc2ccc([S+](=O)([O-])O)c3cc([S+](=O)([O-])O)cc([S+](=O)([O-])O)c23)cc1NC(=O)c1cccc(NC(=O)Nc2cccc(C(=O)Nc3cc(C(=O)Nc4ccc([S+](=O)([O-])O)c5cc([S+](=O)([O-])O)cc([S+](=O)([O-])O)c45)ccc3C)c2)c1`: 123.
Regarding `O=C1c2ccccc2-c2n[nH]c3cccc1c23`, where the note is “top concentration 46.1 µM”, the viability was determined as 99.2.
